Test results taken from patent publication US20250340538A1, “IMIDAZOLONE DERIVATIVES AS INHIBITORS OF PROTEIN KINASES IN PARTICULAR DYRK1A, CLK1 AND/OR CLK4” (PERHA PHARMACEUTICALS, priority 2021, published 2025).

Legend:
Assay type in all cases: biochemical
CLK4 = target: T1, CLK4 (Homo sapiens, UniProt Q9HAZ1); test: Radiometric protein kinase assay (33PanQinase Activity Assay), CLK4; settings: read-out: IC50 on CLK4 (most potent CLK4 inhibitors)
T1 construct: GST-fusion or His-tag (not specified per kinase); purchased ProQinase GmbH; host or cells: Sf9 insect cells or E. coli (not specified per kinase)
Method: (§1) Assays were performed by ProQinase GmbH (Engesserstr. 4, D-79108 Freiburg, Germany. www.proqinase.com). The IC50 profile of all compounds was determined using 12 protein kinases (CDK2/cyclin E, CK1ε, CLK1, 2, 3, 4, DYRK1A, 1B, 2, 3, 4, GSK3β).
(§2) The compounds were provided as […] in 100% DMSO. Prior to testing, the 1 μM stock solutions were subjected to a serial, semi-logarithmic dilution using 100% DMSO as a solvent. […] In the process, 90 μl H2O were added to each well of each compound dilution plate. To minimize potential precipitation, the H2O was added to each plate only a few minutes before the transfer of the compound solutions into the assay plates. The plate was shaken thoroughly, resulting in a compound dilution plate/10% DMSO.
(§3) For the assays (see below), 5 μL solution from each well of the compound dilution plates/10% DMSO were transferred into the assay plates. The final volume of the assay was 50 μL. All compounds were tested at 10 final assay concentrations in the range from 10 μM to 30 nM. The final DMSO concentration in the reaction cocktails was 1% in all cases.
(§4) All protein kinases provided by ProQinase were expressed in Sf9 insect cells or in E. coli as recombinant GST-fusion proteins or His-tagged proteins, either as full-length or enzymatically active fragments. All kinases were produced from human cDNAs and purified by either GSH-affinity chromatography or immobilized metal. Affinity tags were removed from a number of kinases during purification. The purity of the protein kinases was examined by SDS-PAGE/Coomassie staining, the identity was checked by mass spectroscopy.
(§5) A radiometric protein kinase assay (33PanQinase® Activity Assay) was used for measuring the kinase activity of the 12 protein kinases. All kinase assays were performed in 96-well FlashPlates™ from PerkinElmer (Boston, MA, USA) in a 50 μL reaction volume. The reaction cocktail was pipetted in four steps in the following order: • 25 μL of assay buffer (standard buffer/[γ-^33P]-ATP), • 10 μL of ATP solution (in H2O), • 5 μL of test compound (in 10% DMSO), • 10 μL of enzyme/substrate mixture.
(§6) The reaction cocktails were incubated at 30° C. for 60 minutes. The reaction was stopped with 50 μL of 2% (v/v) H3PO4, plates were aspirated and washed two times with 200 μL 0.9% (w/v) NaCl. Incorporation of ^33Pi was determined with a microplate scintillation counter (Microbeta, Wallac). The IC50 values for all compounds were calculated from the dose response curves
(§7) As a parameter for assay quality, the Z′-factor (Zhang et al., J. Biomol. Screen. 2: 67-73, 1999) for the low and high controls of each assay plate (n=8) was used. ProQinase's criterion for repetition of an assay plate is a Z′-factor below 0.4 (Iversen et al., J. Biomol. Screen. 3: 247-252, 2006).

DYRK1A = target: T2, DYRK1A (Homo sapiens, UniProt Q13627); test: Radiometric protein kinase assay (33PanQinase Activity Assay), DYRK1A; settings: for IC50: class by IC50 on DYRK1A, from dose-response curves, read-out: Potency Class DYRK1A; for Selectivity Class DYRK1A vs. CLK1: ratio of IC50 on CLK1 over IC50 on DYRK1A; for Selectivity Class DYRK1A vs. DYRK1B: ratio of IC50 on DYRK1B over IC50 on DYRK1A
T2 construct: GST-fusion or His-tag (not specified per kinase); purchased ProQinase GmbH; host or cells: Sf9 insect cells or E. coli (not specified per kinase)
Procedure, shortened: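 Recombinant human kinase, expressed in Sf9 or E. coli, in a radiometric [γ-33P]-ATP assay at 30 °C for 60 min. Compounds tested at 10 concentrations from 10 μM to 30 nM, 1% DMSO final. 33Pi incorporation measured by scintillation counting; IC50 from dose-response curves.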

DYRK3 = target: T3, DYRK3 (Homo sapiens, UniProt O43781); test: Radiometric protein kinase assay (33PanQinase Activity Assay), DYRK3; settings: read-out: IC50 on DYRK3 (most potent DYRK3 inhibitors)
T3 construct: GST-fusion or His-tag (not specified per kinase); purchased ProQinase GmbH; host or cells: Sf9 insect cells or E. coli (not specified per kinase)
T3 sequence (O43781 1-588): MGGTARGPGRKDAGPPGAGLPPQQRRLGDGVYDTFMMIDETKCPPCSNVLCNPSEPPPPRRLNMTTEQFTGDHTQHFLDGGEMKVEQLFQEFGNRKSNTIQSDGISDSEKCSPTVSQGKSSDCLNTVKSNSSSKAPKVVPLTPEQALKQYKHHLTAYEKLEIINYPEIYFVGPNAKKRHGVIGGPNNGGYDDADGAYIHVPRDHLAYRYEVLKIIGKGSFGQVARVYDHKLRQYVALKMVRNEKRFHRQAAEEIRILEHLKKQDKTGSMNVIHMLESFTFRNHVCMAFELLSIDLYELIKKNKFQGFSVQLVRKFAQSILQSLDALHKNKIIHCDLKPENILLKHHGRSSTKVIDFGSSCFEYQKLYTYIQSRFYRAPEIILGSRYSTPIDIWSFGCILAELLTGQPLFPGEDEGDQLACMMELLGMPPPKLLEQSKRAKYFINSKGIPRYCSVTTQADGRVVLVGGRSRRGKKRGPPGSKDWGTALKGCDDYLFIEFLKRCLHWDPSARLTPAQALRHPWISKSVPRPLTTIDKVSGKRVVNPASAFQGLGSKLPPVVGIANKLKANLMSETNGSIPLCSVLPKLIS
Method: as §1, §2, §3, §4, §5, §6, §7

CLK3 = target: T4, CLK3 (Homo sapiens, UniProt P49761); test: Radiometric protein kinase assay (33PanQinase Activity Assay), CLK3; settings: read-out: IC50 on CLK3 (most potent CLK3 inhibitors)
T4 construct: GST-fusion or His-tag (not specified per kinase); purchased ProQinase GmbH; host or cells: Sf9 insect cells or E. coli (not specified per kinase)
Method: as §1, §2, §3, §4, §5, §6, §7

CLK1 = target: T5, CLK1 (Homo sapiens, UniProt P49759); test: Radiometric protein kinase assay (33PanQinase Activity Assay), CLK1; settings: class by IC50 on CLK1, from dose-response curves; read-out: Potency Class CLK1
T5 construct: GST-fusion or His-tag (not specified per kinase); purchased ProQinase GmbH; host or cells: Sf9 insect cells or E. coli (not specified per kinase)
Procedure, shortened: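 Semi-log compound dilutions, ten final concentrations between 10 μM and 30 nM, went into reactions containing [γ-33P]-ATP and recombinant human enzyme with substrate. After 60 minutes at 30 °C the reaction was stopped with phosphoric acid, and radiolabel incorporation gave IC50 values.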

T4 sequence (P49761 whole entry, the tested form may be a part): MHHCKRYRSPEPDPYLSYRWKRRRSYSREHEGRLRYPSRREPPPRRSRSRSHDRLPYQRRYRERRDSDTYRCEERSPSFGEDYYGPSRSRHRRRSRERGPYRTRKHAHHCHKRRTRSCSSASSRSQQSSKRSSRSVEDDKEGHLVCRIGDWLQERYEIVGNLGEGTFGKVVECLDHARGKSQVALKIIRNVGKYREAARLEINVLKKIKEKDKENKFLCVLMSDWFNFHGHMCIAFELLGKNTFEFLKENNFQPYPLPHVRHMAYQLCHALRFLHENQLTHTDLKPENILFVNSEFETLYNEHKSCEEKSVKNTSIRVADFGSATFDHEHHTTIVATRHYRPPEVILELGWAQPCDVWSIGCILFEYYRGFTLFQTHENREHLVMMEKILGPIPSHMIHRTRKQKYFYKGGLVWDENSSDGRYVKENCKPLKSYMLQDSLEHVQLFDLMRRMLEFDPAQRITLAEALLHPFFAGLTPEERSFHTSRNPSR
T5 sequence (P49759 whole entry, the tested form may be a part): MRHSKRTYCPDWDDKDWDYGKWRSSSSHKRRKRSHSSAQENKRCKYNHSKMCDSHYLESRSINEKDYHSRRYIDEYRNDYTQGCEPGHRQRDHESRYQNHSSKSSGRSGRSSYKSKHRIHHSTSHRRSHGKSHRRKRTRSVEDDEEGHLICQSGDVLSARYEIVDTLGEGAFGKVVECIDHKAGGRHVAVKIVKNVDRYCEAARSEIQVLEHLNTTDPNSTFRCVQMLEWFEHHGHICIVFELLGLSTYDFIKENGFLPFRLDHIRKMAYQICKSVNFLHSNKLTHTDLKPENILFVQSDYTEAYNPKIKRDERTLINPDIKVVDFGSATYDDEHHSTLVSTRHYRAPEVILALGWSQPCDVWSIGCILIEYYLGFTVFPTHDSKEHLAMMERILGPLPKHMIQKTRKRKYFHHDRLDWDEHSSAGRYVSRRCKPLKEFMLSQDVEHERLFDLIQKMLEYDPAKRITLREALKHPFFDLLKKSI
T1 sequence (Q9HAZ1 whole entry, the tested form may be a part): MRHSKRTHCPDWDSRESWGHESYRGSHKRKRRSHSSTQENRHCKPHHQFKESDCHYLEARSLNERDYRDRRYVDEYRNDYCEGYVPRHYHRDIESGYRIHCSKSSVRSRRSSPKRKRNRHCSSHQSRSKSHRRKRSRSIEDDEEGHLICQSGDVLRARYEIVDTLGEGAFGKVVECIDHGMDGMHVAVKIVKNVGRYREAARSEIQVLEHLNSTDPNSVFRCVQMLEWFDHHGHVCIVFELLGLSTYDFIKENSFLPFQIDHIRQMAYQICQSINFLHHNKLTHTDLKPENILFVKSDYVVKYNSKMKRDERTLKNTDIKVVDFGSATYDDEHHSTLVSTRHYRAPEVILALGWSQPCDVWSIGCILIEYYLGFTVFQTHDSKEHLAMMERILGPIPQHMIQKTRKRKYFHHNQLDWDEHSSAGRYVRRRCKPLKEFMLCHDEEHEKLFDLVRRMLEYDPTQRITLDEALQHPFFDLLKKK

IC50 (CLK4) | IC50 (DYRK1A) | Selectivity Class DYRK1A vs. CLK1 (DYRK1A) | Selectivity Class DYRK1A vs. DYRK1B (DYRK1A) | IC50 (DYRK3) | IC50 (CLK3) | IC50 (CLK1) | Structure (SMILES)
≤ 10 nM | 25 to 50 nM | III (ratio between 0.5 and 2 fold) | III (ratio between 0.5 and 2 fold) | ≤ 250 nM | ≤ 500 nM | 25 to 50 nM | O=C1NC(NC2CCCCC2)=N/C1=C\c1ccc2ncccc2n1 [Compound 79, (4Z)-2-(cyclohexylamino)-4-(1,5-naphthyridin-2-ylmethylene)-1H-imidazol-5-one]
 | > 50 nM | III (ratio between 0.5 and 2 fold) | III (ratio between 0.5 and 2 fold) |  | ≤ 500 nM | > 50 nM | COC[C@@H](CC(C)C)NC1=N/C(=C\c2ccc3ncccc3n2)C(=O)N1 [Compound 81, (4Z)-2-[[(1R)-1-(methoxymethyl)-3-methyl-butyl]amino]-4-(1,5-naphthyridin-2-ylmethylene)-1H-imidazol-5-one]
